molecular target: 5-HT2A receptors (Rattus norvegicus, UniProt P14842); test: in-vitro affinity to 5-HT2A receptors, displacement of [3H]ketanserine (Example A1); format: binding; conditions: read-out: HT2A IC50
Source text: The 5-HT2A receptors are exposed both to [^3H]ketanserine (a substance which is known for its affinity to the receptor) and also to the test compound. The decrease in the affinity of [^3H]ketanserine to the receptor is an indication of the affinity of the test substance to the 5-HT2A receptor.

Chain of 5-HT2A receptors (P14842 whole entry): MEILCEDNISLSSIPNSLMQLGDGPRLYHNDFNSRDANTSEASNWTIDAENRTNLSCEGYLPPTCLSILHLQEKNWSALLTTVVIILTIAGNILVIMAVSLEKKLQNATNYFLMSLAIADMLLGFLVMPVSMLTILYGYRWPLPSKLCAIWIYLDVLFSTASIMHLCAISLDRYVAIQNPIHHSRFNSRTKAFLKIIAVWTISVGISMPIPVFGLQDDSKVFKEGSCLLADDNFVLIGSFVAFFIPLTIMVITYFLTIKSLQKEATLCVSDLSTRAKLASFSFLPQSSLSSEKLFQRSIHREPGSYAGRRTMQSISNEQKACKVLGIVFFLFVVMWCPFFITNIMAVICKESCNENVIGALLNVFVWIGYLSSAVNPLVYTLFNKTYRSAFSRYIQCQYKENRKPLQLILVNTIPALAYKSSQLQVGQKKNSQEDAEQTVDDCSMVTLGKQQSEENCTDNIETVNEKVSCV

Compound	IC50
Cc1ccccc1-c1ccc(-n2ncc(CN3CCN(C)CC3)c2-c2ccccc2F)cc1 [Example 1020, 1-[5-(2-Fluorophenyl)-1-(2′-methyl-biphenyl-4-yl)-1H-pyrazol-4-ylmethyl]-4-methylpiperazine]	230 nM
CCOC(=O)N1CCN(Cc2cnn(-c3ccc(-c4ccccc4)cc3)c2-c2ccccc2F)CC1 [Example 957, Ethyl 4-[1-biphenyl-4-yl-5-(2-fluoro-phenyl)-1H-pyrazol-4-ylmethyl]piperazine-1-carboxylate]	58 nM
Fc1ccccc1-c1c(CNC2CN3CCC2CC3)cnn1-c1ccc(-c2ccccc2)cc1 (stereo not drawn) [Example 991, (1-Azabicyclo[2.2.2]oct-3-yl)-[1-biphenyl-4-yl-5-(2-fluorophenyl)-1H-pyrazol-4-ylmethyl]-amine]	140 nM
OCCc1cnn(-c2ccc(-c3ccccc3)cc2)c1-c1ccccc1F [Example 1059, 2-[1-Biphenyl-4-yl-5-(2-fluoro-phenyl)-1H-pyrazol-4-yl]ethanol]	470 nM

Results, then the compound that gave them:

IC50	Compound
35 nM	CCN1CCN(Cc2cnn(-c3ccc(-c4ccc(F)cc4)cc3)c2-c2cccc(OC)c2)CC1 [Example 938, 1-Ethyl-4-[1-(4′-fluorobiphenyl-4-yl)-5-(3-methoxyphenyl)-1H-pyrazol-4-ylmethyl]-piperazine]
320 nM	CCN(Cc1ccccc1)Cc1cnn(-c2ccc(-c3ccccc3)cc2)c1-c1ccccc1F [Example 1039, Benzyl-[1-biphenyl-4-yl-5-(2-fluoro-phenyl)-1H-pyrazol-4-ylmethyl]ethylamine]
35 nM	CN(C)C1CCN(Cc2cnn(-c3ccc(-c4ccccc4)cc3)c2-c2ccccc2F)C1 (stereo not drawn) [Example 936, {1-[1-Biphenyl-4-yl-5-(2-fluoro-phenyl)-1H-pyrazol-4-ylmethyl]pyrrolidin-3-yl}dimethyl-amine]
280 nM	Fc1ccccc1-c1c(CN2CCN3CCc4ccccc4C3C2)cnn1-c1ccc(-c2ccccc2)cc1 (stereo not drawn) [Example 1031, 2-[1-Biphenyl-4-yl-5-(2-fluorophenyl)-1H-pyrazol-4-ylmethyl]-1,3,4,6,7,11b-hexahydro-2H-pyrazino[2,1-a]isoquinoline]
370 nM	OCC(Cc1cnc[nH]1)NCc1cnn(-c2ccc(-c3ccccc3)cc2)c1-c1ccccc1F (stereo not drawn) [Example 1045, 2-{[1-Biphenyl-4-yl-5-(2-fluoro-phenyl)-1H-pyrazol-4-ylmethyl]amino}-3-(3H-imidazol-4-yl)propan-1-ol]
85 nM	CN1CCN(Cc2cnn(-c3ccc(-c4ccc(F)cc4)cc3)c2-c2cnccn2)CC1 [Example 972, 2-[2-(4′-Fluorobiphenyl-4-yl)-4-(4-methyl-piperazin-1-ylmethyl)-2H-pyrazol-3-yl]-pyrazine]
430 nM	OC1CCN(Cc2cnn(-c3ccc(-c4ccccc4)cc3)c2-c2ccccc2F)CC1 [Example 1053, 1-[1-Biphenyl-4-yl-5-(2-fluorophenyl)-1H-pyrazol-4-ylmethyl]piperidin-4-ol]

same assay, conditions: target not given; description names affinity to 5-HT2A receptors; read-out: IC50

Compound	IC50
CN1CCN(Cc2cnn(-c3ccc(-c4ccccc4F)cc3)c2-c2ccc(F)cc2)CC1 [(99), 1-[1-(2′-Fluorobiphenyl-4-yl)-5-(4-fluorophenyl)-1H-pyrazol-4-ylmethyl]-4-methylpiperazine]	210 nM
Fc1ccccc1-c1c(CN2CCOCC2)cnn1-c1ccc(-c2ccccc2)cc1 [(28), 4-[1-Biphenyl-4-yl-5-(2-fluorophenyl)-1H-pyrazol-4-ylmethyl]-morpholine]	1100 nM
CCOC(=O)CNCc1cnn(-c2ccc(-c3ccccc3)cc2)c1-c1cccnc1 [(117), Ethyl [(1-biphenyl-4-yl-5-pyridin-3-yl-1H-pyrazol-4-ylmethyl)-amino]acetate]	940 nM
c1ccc(-c2ccc(-n3ncc(CNCc4ccccn4)c3-c3ccccc3)cc2)cc1 [(172), (1-Biphenyl-4-yl-5-phenyl-1H-pyrazol-4-ylmethyl)pyridin-2-ylmethylamine]	23 nM
COCCN(C)Cc1cnn(-c2ccc(-c3cc(F)ccc3F)nc2)c1-c1ccccc1F [(159), [1-[6-(2,5-Difluorophenyl)pyridin-3-yl]-5-(2-fluorophenyl)-1H-pyrazol-4-ylmethyl]-(2-methoxyethyl)-methylamine]	1400 nM
CN1CCN(Cc2cnn(-c3ccc(-c4ccc(F)cc4)cc3)c2-c2ccc(F)cc2)CC1 [(100), 1-[1-(4′-Fluorobiphenyl-4-yl)-5-(4-fluorophenyl)-1H-pyrazol-4-ylmethyl]-4-methylpiperazine]	25 nM
CC(C)(C)OC(=O)N1CCN(Cc2cnn(-c3ccc(C(F)(F)F)cc3)c2-c2ccccc2F)CC1 [(84), tert-Butyl 4-[5-(2-fluorophenyl)-1-(4-trifluoromethyl-phenyl)-1H-pyrazol-4-ylmethyl]piperazine-1-carboxylate]	8 nM
O=S1(=O)CCN(Cc2cnn(-c3ccc(-c4ccccc4)cc3)c2-c2ccccc2F)CC1 [(108), 4-[1-Biphenyl-4-yl-5-(2-fluorophenyl)-1H-pyrazol-4-ylmethyl]-thiomorpholine 1,1-dioxide]	43 nM
Fc1ccccc1-c1c(CNCc2nc3ccccc3[nH]2)cnn1-c1ccc(-c2ccccc2)cc1 [(133), (1H-Benzoimidazol-2-ylmethyl)-[1-biphenyl-4-yl-5-(2-fluorophenyl)-1H-pyrazol-4-ylmethyl]amine]	76 nM
1-Biphenyl-4-yl-5-(2-fluorophenyl)-4-(2-methoxy-methylpyrrolidin-1-ylmethyl)-1H-pyrazole [(48)]	510 nM
Fc1ccccc1-c1c(CNC2CCNCC2)cnn1-c1ccc(-c2ccccc2)cc1 [(74), [1-Biphenyl-4-yl-5-(2-fluorophenyl)-1H-pyrazol-4-ylmethyl]-piperidin-4-ylamine]	470 nM
Fc1ccccc1-c1c(CNc2ccon2)cnn1-c1ccc(-c2ccccc2)cc1 [(138), [1-Biphenyl-4-yl-5-(2-fluorophenyl)-1H-pyrazol-4-ylmethyl]-isoxazol-3-ylamine]	240 nM
CN1CCN(Cc2cnn(-c3ccc(-c4ccccc4)cc3)c2-c2cccnc2)CC1 [(113), 1-(1-Biphenyl-4-yl-5-pyridin-3-yl-1H-pyrazol-4-ylmethyl)-4-methylpiperazine]	290 nM
COC(=O)c1cc(NCc2cnn(-c3ccc(-c4ccccc4)cc3)c2-c2ccccc2F)cn1C [(162), Methyl 4-{[1-biphenyl-4-yl-5-(2-fluorophenyl)-1H-pyrazol-4-ylmethyl]amino}-1-methyl-1H-pyrrole-2-carboxylate]	120 nM
O=C1NCN(c2ccccc2)C12CCN(Cc1cnn(-c3ccc(-c4ccccc4)cc3)c1-c1ccccc1F)CC2 [(94), 8-[1-Biphenyl-4-yl-5-(2-fluorophenyl)-1H-pyrazol-4-ylmethyl]-1-phenyl-1,3,8-triazaspiro[4.5]decan-4-one]	400 nM
O=C(CNCc1cnn(-c2ccc(-c3ccccc3)cc2)c1-c1ccccc1F)Nc1ccc([N+](=O)[O-])cc1 [(129), 2-{[1-Biphenyl-4-yl-5-(2-fluorophenyl)-1H-pyrazol-4-ylmethyl]-amino}-N-(4-nitrophenyl)acetamide]	100 nM
CN1CCN(Cc2cnn(-c3ccc(C(F)(F)F)cc3)c2-c2ccccc2F)CC1 [(87), 1-[5-(2-Fluorophenyl)-1-(4-trifluoromethylphenyl)-1H-pyrazol-4-ylmethyl]-4-methylpiperazine]	160 nM

More lines, now with the values ahead:

IC50	Compound
300 nM	COCCN(C)Cc1cnn(-c2ccc(-c3ccccc3)nc2)c1-c1ccccc1F [(134), [5-(2-Fluorophenyl)-1-(6-phenylpyridin-3-yl)-1H-pyrazol-4-ylmethyl]-(2-methoxyethyl)methylamine]
510 nM	O=C1NCCCCC1NCc1cnn(-c2ccc(-c3ccccc3)cc2)c1-c1ccccc1F (stereo not drawn) [(163), 3-{[1-Biphenyl-4-yl-5-(2-fluorophenyl)-1H-pyrazol-4-ylmethyl]-amino}azepan-2-one]
730 nM	NC(=O)CNCc1cnn(-c2ccc(-c3ccccc3)cc2)c1-c1ccccc1F [(118), 2-{[1-Biphenyl-4-yl-5-(2-fluorophenyl)-1H-pyrazol-4-ylmethyl]-amino}acetamide]
120 nM	CN1CCN(Cc2cnn(-c3ccc(-c4ccc(F)cc4)nc3)c2-c2ccccc2F)CC1 [(116), 1-{5-(2-Fluorophenyl)-1-[6-(4-fluorophenyl)pyridin-3-yl]-1H-pyrazol-4-ylmethyl}-4-methylpiperazine]
140 nM	CN(C)CCN(C)Cc1cnn(-c2ccc(-c3ccc(F)cc3)nc2)c1-c1ccccc1F [(141), N-{5-(2-fluorophenyl)-1-[6-(4-fluorophenyl)pyridin-3-yl]-1H-pyrazol-4-ylmethyl}-N,N′,N′-trimethylethane-1,2-diamine]
180 nM	Fc1ccccc1-c1c(CNCc2cccnc2)cnn1-c1ccc(-c2ccccc2)cc1 [(89), [1-Biphenyl-4-yl-5-(2-fluorophenyl)-1H-pyrazol-4-ylmethyl]-pyridin-3-ylmethylamine]
320 nM	Fc1ccccc1-c1c(CNC2C3CNCC32)cnn1-c1ccc(-c2ccccc2)cc1 (stereo not drawn) [(192), (3-Azabicyclo[3.1.0]hex-6-yl)-[1-biphenyl-4-yl-5-(2-fluorophenyl)-1H-pyrazol-4-ylmethyl]amine]
1200 nM	Fc1ccc(-c2ccc(-n3ncc(CNc4cnccn4)c3-c3ccccc3F)cn2)cc1 [(196), {5-(2-Fluorophenyl)-1-[6-(4-fluorophenyl)pyridin-3-yl]-1H-pyrazol-4-ylmethyl}pyrazin-2-ylamine]
170 nM	Fc1ccccc1-c1c(CN2CCN(Cc3ccccc3)CC2)cnn1-c1ccc(-c2ccccc2)cc1 [(24), 1-Benzyl-4-[1-biphenyl-4-yl-5-(2-fluorophenyl)-1H-pyrazol-4-ylmethyl]piperazine]
600 nM	CNC(=O)CNCc1cnn(-c2ccc(-c3ccccc3)cc2)c1-c1ccccc1F [(130), 2-{[1-Biphenyl-4-yl-5-(2-fluorophenyl)-1H-pyrazol-4-ylmethyl]-amino}-N-methylacetamide]
170 nM	CN1CCN(Cc2cnn(-c3ccc(-c4cccnc4)cc3)c2-c2ccccc2F)CC1 [(120), 1-[5-(2-Fluorophenyl)-1-(4-pyridin-3-ylphenyl)-1H-pyrazol-4-ylmethyl]-4-methylpiperazine]
